Data as given in patent publication US20110177105A1, “Novel Selective Inhibitors of Ubiquitin Specific Protease 7, the Pharmaceutical Compositions Thereof and Their Therapeutic Applications” (priority 2010, published 2011).

The molecules below were run against T1, USP8 (Homo sapiens, UniProt P40818) (assay: USP8 activity assay (Ub-AMC)). Details: 300 nM Ub-AMC, 1.36 nM enzyme.
T1 construct: His tag (pFastBac-HT vector); made in house; host or cells: Sf9 or High Five insect cells, baculovirus
T1 sequence (P40818 1-1118): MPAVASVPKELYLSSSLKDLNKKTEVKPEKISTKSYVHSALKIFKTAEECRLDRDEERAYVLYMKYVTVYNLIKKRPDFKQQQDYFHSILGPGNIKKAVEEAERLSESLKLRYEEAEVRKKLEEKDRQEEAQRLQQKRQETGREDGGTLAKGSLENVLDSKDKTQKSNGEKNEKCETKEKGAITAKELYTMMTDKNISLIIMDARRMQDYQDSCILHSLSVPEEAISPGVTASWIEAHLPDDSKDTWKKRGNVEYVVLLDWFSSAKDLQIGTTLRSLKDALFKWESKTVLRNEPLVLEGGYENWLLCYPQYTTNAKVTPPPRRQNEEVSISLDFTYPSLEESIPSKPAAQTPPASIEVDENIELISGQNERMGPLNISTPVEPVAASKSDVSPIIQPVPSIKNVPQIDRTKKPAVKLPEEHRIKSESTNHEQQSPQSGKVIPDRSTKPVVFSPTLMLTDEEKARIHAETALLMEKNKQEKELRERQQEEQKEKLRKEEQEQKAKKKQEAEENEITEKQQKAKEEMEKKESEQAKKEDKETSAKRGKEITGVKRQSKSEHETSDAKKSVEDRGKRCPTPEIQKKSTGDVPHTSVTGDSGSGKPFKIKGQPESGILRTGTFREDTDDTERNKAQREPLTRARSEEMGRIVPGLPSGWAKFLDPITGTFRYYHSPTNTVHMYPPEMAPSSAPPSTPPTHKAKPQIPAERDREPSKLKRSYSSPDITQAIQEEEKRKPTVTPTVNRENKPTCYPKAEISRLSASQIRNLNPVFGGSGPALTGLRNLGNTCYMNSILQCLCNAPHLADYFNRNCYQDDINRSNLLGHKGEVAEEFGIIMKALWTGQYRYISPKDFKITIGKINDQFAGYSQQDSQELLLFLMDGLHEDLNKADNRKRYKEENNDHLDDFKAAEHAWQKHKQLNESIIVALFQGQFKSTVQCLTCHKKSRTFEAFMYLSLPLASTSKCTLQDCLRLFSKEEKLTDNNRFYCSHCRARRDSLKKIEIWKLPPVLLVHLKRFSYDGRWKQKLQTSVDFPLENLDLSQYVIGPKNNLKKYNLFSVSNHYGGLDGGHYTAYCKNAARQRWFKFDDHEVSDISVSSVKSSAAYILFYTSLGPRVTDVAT
Type: biochemical
Excerpt: The cDNA encoding USP8 was obtained by PCR amplification from placenta mRNA. USP8 cDNA was subcloned by PCR into a baculovirus expression vector (pFastBac-HT; Invitrogen). A cDNA encoding a mutated USP8 was generated by mutagenic PCR. The corresponding protein encodes a cysteine to alanine substitution at residue 786. The sequences were ascertained by sequencing of the entire open reading frame. Bacmids encoding USP8 were generated following DH10bac transposition. The corresponding bacmids were transfected into insect cells (Sf9). Viruses were recovered from culture supernatant and amplified twice. Insect cells (Sf9 or High Five; Invitrogen) were infected for 72 hours. Total cell lysates were harvested and lyzed in lysis buffer (Tris HCl 50 mM pH 7.6; 0.75% NP40; 500 mM NaCl; 10% glycerol; 1 mM DTT; 10 mM imidazole; Protease Inhibitor Cocktail; AEBSF 20 μg·ml^−1; Aprotinin 10 μg·ml^−1). Proteins were affinity purified on metal affinity resins (Talon Metal affinity resin; BD Biosciences). Bound materials were extensively washed in wash buffer (50 mM Sodium Phosphate pH 7.0; 300 mM NaCl; 10 mM imidazole; 0.5% Triton X-100; 10% glycerol) and eluted from the resin in 250 mM imidazole-containing wash buffer. Proteins were dialyzed in dialysis buffer (Tris HCl pH 7.6 20 mM; NaCl 200 mM; DTT 1 mM; EDTA 1 mM; 10% Glycerol). Proteins purifications were analyzed on 4-12% NuPAGE (Invitrogen).
USP8 was diluted in USP buffer (50 mM Tris HCl; 0.5 mM EDTA; 5 mM DTT; 0.01% Triton X-100; Bovine Serum Albumin 0.05 mg·ml^−1 pH 8.8). Compounds stocks (100 mM) were stored at −20° C. in DMSO. Compounds were tested at different concentrations: from […] to 91 nM.
Reactions were performed as duplicates in Black 384 well plates (small volume microplates; Greiner; 10 μl final reaction volume). The substrate concentration for USP8 was 300 nM Ub-AMC (Boston Biochem). The concentration of the enzyme (USP8) in specificity assays was 1.36 nM. The concentrations were determined in order to perform specificity assays under initial velocities at fixed substrate concentration. Compounds were pre-incubated with enzymes for 30 minutes at 25° C. Reactions were initiated by addition of substrate to the plates containing the enzymes (+/−compounds) diluted in assay buffer. Reactions were incubated for 60 minutes at 37° C. Reactions were stopped by adding acetic acid (100 mM final). Readings were performed on a Pherastar Fluorescent Reader (BMG). λ Emission 380 nm: λ Excitation=460 nm. Data (mean values+/−standard deviation) were analyzed as % of control (no compound) and plotted as percentage versus the Log of the compound concentration using GraphPad (Prism). Data were fitted to a sigmoidal model (variable slope).

Structure (SMILES) | IC50
Cc1cccc(CN2CCC(CNC(=O)c3ccc4c(Cl)c5c(nc4c3)CCCC5)CC2)c1 [Example 1, 9-Chloro-5,6,7,8-tetrahydro-acridine-3-carboxylic acid [1-(3-methyl-benzyl)-piperidin-4-ylmethyl]-amide] | > 200 µM
CCCN(CCC)CCNC(=O)c1ccc2c(Cl)c3c(nc2c1)CCCC3 [Example 3, 9-Chloro-5,6,7,8-tetrahydro-acridine-3-carboxylic acid (2-dipropylamino-ethyl)-amide] | > 200 µM
CCCCN(CC)CCNC(=O)c1ccc2c(Cl)c3c(nc2c1)CCCC3 [Example 4, 9-Chloro-5,6,7,8-tetrahydro-acridine-3-carboxylic acid [2-(butyl-ethyl-amino)-ethyl]-amide] | > 200 µM
CCN(CCCNC(=O)c1ccc2c(Cl)c3c(nc2c1)CCCC3)Cc1ccccc1 [Example 5, 9-Chloro-5,6,7,8-tetrahydro-acridine-3-carboxylic acid [3-(benzyl-ethyl-amino)-propyl]-amide] | > 200 µM
CCCN(CCC)CCCNC(=O)c1ccc2c(Cl)c3c(nc2c1)CCCC3 [Example 6, 9-Chloro-5,6,7,8-tetrahydro-acridine-3-carboxylic acid (3-dipropylamino-propyl)-amide] | > 200 µM
CCN(CC)CCNC(=O)c1ccc2c(Cl)c3c(nc2c1)CCCC3 [Example 7, 9-Chloro-5,6,7,8-tetrahydro-acridine-3-carboxylic acid (2-diethylamino-ethyl)-amide] | > 200 µM
O=C(NCCCN1CCCC1)c1ccc2c(Cl)c3c(nc2c1)CCCC3 [Example 8, 9-Chloro-5,6,7,8-tetrahydro-acridine-3-carboxylic acid (3-pyrrolidin-1-yl-propyl)-amide] | > 200 µM
CC1CCCC(C)N1CCCNC(=O)c1ccc2c(Cl)c3c(nc2c1)CCCC3 (stereo not drawn) [Example 9, 9-Chloro-5,6,7,8-tetrahydro-acridine-3-carboxylic acid [3-(2,6-dimethyl-piperidin-1-yl)-propyl]-amide] | > 200 µM
CCN(CC)CCCNC(=O)c1ccc2c(Cl)c3c(nc2c1)CCCC3 [Example 10, 9-Chloro-5,6,7,8-tetrahydro-acridine-3-carboxylic acid (3-diethylamino-propyl)-amide] | > 200 µM
CN(C)CCNC(=O)c1ccc2c(Cl)c3c(nc2c1)CCCC3 [Example 11, 9-Chloro-5,6,7,8-tetrahydro-acridine-3-carboxylic acid (2-dimethylamino-ethyl)-amide] | > 200 µM
O=C(c1ccc2c(Cl)c3c(nc2c1)CCCC3)N1CCCCCC1 [Example 12, Azepan-1-yl-(9-chloro-5,6,7,8-tetrahydro-acridin-3-yl)-methanone] | > 200 µM
CCCN1CCN(CCCNC(=O)c2ccc3c(Cl)c4c(nc3c2)CCCC4)CC1 [Example 13, 9-Chloro-5,6,7,8-tetrahydro-acridine-3-carboxylic acid [3-(4-propyl-piperazin-1-yl)-propyl]-amide] | > 200 µM
CN(CCCNC(=O)c1ccc2c(Cl)c3c(nc2c1)CCCC3)Cc1ccccc1 [Example 14, 9-Chloro-5,6,7,8-tetrahydro-acridine-3-carboxylic acid [3-(benzyl-methyl-amino)-propyl]-amide] | > 200 µM
CN1CCN(CCCNC(=O)c2ccc3c(Cl)c4c(nc3c2)CCCC4)CC1 [Example 15, 9-Chloro-5,6,7,8-tetrahydro-acridine-3-carboxylic acid [3-(4-methyl-piperazin-1-yl)-propyl]-amide] | > 200 µM
O=C(c1ccc2c(Cl)c3c(nc2c1)CCCC3)N1CCC(N2CCCCC2)CC1 [Example 16, [1,4′]Bipiperidinyl-1′-yl-(9-chloro-5,6,7,8-tetrahydro-acridin-3-yl)-methanone] | > 200 µM
